From ChEMBL document CHEMBL3632526, “Novel, potent, selective and cellular active ABC type PTP1B inhibitors containing (methanesulfonyl-phenyl-amino)-acetic acid methyl ester phosphotyrosine mimetic” (Bioorg Med Chem, 2015)
Calls of active or inactive are those of the source. No cut-off for these calls is given here.

Tests used:
[1] = biological target: T1, Tyrosine-protein phosphatase non-receptor type 1 (Homo sapiens) (UniProt P18031); assay: Inhibition of recombinant PTP1B (unknown origin) assessed as hydrolysis of pNPP to pNP at 25 uM after 30 mins
T1 sequence (whole entry): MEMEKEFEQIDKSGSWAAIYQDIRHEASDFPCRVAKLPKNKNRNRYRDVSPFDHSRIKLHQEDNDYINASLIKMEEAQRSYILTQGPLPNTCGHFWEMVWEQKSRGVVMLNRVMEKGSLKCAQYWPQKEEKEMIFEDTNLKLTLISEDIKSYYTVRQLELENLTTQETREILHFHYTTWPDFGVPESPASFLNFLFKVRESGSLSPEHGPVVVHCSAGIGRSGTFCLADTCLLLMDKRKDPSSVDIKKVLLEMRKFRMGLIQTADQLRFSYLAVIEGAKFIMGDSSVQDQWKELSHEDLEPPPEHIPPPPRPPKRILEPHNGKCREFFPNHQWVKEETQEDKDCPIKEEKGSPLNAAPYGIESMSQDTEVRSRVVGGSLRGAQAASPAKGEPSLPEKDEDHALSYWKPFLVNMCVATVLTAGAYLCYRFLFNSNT

[2] = biological target: T2, Tyrosine-protein phosphatase non-receptor type 1 (Homo sapiens, UniProt P18031); assay: Inhibition of recombinant PTP1B (unknown origin) assessed as hydrolysis of pNPP to pNP after 30 mins
T2 sequence (P18031 whole entry): T1 sequence (whole entry)

[3] = system: L6; assay: Increase in insulin stimulated glucose uptake in differentiated rat L6 myotube at 5 uM preincubated for 4 hrs followed by insulin stimulation for 10 mins and addition of 2-NBDG measured after 30 mins by 2-NBDG-based fluorescence analysis; type: functional
[4] = organism: Homo sapiens; assay: Increase in insulin-stimulated glucose uptake in differentiated human skeletal muscle cells preincubated for 4 hrs followed by insulin stimulation for 10 mins and addition of 2-NBDG measured after 30 mins by 2-NBDG-based fluorescence analysis; type: functional
[5] = organism: Homo sapiens; assay: Selectivity ratio of IC50 for TCPTP (unknown origin) to IC50 for PTP1B (unknown origin)
[6] = biological target: T3, Tyrosine-protein phosphatase non-receptor type 6 (Homo sapiens, UniProt P29350); assay: Inhibition of SHP1 (unknown origin) assessed as hydrolysis of pNPP to pNP after 30 mins
T3 sequence (P29350 whole entry): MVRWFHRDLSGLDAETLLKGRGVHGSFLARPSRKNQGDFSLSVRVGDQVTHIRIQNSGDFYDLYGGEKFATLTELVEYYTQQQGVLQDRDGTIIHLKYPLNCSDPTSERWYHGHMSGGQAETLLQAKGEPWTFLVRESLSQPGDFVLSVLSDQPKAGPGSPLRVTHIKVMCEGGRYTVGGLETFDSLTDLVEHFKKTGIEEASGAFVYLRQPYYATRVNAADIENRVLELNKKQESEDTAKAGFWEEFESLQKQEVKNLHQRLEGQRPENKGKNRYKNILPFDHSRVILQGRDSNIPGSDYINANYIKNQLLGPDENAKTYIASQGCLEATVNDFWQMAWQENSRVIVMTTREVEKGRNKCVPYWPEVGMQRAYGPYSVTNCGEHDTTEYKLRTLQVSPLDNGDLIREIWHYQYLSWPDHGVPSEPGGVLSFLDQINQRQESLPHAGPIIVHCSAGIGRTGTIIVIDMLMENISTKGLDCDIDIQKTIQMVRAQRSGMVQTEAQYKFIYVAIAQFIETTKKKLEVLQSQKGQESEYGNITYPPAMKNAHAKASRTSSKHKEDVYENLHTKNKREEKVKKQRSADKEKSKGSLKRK

[7] = system: CHO; assay: Inhibition of PTP1B in CHO cells transfected with human IRbeta expressing plasmid assessed as increase in phosphorylation level of IRbeta at 15 uM and 30 uM incubated for 4 hrs prior to insulin stimulation for 10 mins by SDS-PAGE analysis; type: cell-based; settings: Cricetulus griseus
[8] = biological target: Receptor-type tyrosine-protein phosphatase F (Homo sapiens) (UniProt P10586); assay: Inhibition of LAR (unknown origin) assessed as hydrolysis of pNPP to pNP at 25 uM after 30 mins
Sequence of Receptor-type tyrosine-protein phosphatase F (Homo sapiens) (P10586 whole entry): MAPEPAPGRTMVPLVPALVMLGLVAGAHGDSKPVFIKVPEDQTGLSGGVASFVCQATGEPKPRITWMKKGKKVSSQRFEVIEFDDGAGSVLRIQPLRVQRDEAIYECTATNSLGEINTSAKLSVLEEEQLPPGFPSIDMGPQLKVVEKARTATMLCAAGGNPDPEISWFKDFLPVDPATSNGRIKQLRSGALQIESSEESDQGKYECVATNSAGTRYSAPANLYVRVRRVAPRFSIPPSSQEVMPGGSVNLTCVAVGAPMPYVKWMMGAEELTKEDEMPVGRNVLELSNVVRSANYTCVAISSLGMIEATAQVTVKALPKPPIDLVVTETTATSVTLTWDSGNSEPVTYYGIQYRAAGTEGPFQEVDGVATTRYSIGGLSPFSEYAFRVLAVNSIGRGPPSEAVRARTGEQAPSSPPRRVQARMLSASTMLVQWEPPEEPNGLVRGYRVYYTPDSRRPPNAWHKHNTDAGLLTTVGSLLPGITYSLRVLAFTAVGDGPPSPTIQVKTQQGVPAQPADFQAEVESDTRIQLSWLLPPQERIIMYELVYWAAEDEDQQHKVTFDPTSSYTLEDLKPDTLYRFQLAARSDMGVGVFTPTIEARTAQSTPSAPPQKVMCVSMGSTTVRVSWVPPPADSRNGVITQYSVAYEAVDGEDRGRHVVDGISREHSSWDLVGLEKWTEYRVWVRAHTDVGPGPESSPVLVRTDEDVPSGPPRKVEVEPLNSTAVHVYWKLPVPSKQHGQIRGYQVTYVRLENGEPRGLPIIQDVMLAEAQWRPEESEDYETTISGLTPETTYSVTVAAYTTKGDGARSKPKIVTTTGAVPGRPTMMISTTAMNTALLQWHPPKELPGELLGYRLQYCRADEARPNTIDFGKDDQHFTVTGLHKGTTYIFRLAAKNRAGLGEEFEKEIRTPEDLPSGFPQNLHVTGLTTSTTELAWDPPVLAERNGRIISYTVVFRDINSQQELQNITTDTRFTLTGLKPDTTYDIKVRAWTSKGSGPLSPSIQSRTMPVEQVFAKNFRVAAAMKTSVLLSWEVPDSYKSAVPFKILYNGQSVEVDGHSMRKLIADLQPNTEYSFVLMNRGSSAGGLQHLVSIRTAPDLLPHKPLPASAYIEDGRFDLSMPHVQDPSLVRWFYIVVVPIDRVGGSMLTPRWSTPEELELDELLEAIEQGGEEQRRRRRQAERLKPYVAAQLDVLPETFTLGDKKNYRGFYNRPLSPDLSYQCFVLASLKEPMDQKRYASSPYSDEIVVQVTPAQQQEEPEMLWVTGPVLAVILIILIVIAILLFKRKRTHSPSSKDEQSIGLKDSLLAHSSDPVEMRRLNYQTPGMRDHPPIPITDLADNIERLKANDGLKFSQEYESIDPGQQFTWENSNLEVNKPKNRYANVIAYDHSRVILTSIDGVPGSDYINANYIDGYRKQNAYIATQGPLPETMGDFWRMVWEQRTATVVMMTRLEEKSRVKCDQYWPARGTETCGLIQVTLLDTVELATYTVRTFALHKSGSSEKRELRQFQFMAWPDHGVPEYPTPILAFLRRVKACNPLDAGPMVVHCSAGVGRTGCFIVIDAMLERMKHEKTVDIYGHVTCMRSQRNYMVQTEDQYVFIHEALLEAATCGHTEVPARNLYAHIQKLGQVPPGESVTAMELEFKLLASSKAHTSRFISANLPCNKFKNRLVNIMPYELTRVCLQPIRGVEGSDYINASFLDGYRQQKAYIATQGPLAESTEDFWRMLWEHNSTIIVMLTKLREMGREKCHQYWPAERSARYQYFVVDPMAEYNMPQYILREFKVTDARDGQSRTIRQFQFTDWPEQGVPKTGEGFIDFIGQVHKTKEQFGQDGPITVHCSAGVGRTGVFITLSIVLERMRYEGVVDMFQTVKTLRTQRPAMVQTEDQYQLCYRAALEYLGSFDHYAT

[9] = organism: Homo sapiens; assay: Selectivity ratio of IC50 for SHP1 (unknown origin) to IC50 for PTP1B (unknown origin)
[10] = biological target: T4, Tyrosine-protein phosphatase non-receptor type 2 (Homo sapiens, UniProt P17706); assay: Inhibition of TCPTP (unknown origin) assessed as hydrolysis of pNPP to pNP after 30 mins
T4 sequence (P17706 whole entry): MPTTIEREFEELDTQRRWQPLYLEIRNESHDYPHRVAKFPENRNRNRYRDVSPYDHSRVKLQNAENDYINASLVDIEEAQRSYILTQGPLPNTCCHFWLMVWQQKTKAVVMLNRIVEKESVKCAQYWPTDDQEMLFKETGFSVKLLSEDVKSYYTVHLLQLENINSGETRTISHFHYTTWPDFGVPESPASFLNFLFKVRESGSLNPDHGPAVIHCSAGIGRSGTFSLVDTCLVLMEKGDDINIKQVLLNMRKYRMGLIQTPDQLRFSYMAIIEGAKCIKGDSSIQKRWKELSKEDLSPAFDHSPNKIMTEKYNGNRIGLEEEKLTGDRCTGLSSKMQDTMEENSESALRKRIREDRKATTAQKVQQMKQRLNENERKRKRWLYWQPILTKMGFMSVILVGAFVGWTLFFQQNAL

[11] = system: 3T3-L1; assay: Inhibition of PTP1B in IRbeta expressing mouse 3T3L1 cells assessed as increase in phosphorylation level of IRbeta at 15 uM and 30 uM prior to insulin stimulation by SDS-PAGE analysis; type: cell-based
[12] = system: L6; assay: Increase in insulin stimulated glucose uptake in differentiated rat L6 myotube at 10 uM preincubated for 4 hrs followed by insulin stimulation for 10 mins and addition of 2-NBDG measured after 30 mins by 2-NBDG-based fluorescence analysis; type: functional
[13] = biological target: T5, Tyrosine-protein phosphatase non-receptor type 11 (Homo sapiens) (UniProt Q06124); assay: Inhibition of SHP2 (unknown origin) assessed as hydrolysis of pNPP to pNP at 25 uM after 30 mins
T5 sequence (whole entry): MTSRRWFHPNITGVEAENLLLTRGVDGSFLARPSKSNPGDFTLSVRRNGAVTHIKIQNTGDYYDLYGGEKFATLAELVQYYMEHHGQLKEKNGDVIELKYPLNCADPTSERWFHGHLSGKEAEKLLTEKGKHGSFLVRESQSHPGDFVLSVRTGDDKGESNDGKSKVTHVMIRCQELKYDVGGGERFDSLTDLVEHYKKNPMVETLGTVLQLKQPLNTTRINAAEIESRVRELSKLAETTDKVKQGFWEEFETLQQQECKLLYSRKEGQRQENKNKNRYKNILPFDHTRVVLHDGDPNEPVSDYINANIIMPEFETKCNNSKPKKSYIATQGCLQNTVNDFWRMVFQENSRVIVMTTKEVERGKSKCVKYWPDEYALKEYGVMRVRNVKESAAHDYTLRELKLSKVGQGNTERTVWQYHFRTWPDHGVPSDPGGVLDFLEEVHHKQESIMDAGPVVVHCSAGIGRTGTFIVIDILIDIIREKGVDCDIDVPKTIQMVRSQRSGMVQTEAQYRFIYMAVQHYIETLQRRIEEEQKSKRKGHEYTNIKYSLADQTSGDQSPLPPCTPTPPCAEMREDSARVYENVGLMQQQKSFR

[14] = biological target: T6, Tyrosine-protein phosphatase non-receptor type 2 (Homo sapiens) (UniProt P17706); assay: Inhibition of TCPTP (unknown origin) assessed as hydrolysis of pNPP to pNP at 25 uM after 30 mins
T6 sequence (whole entry): T4 sequence (P17706 whole entry)

[15] = biological target: T7, Tyrosine-protein phosphatase non-receptor type 11 (Homo sapiens, UniProt Q06124); assay: Inhibition of SHP2 (unknown origin) assessed as hydrolysis of pNPP to pNP after 30 mins
T7 sequence (Q06124 whole entry): T5 sequence (whole entry)

[16] = biological target: T3, Tyrosine-protein phosphatase non-receptor type 6; assay: Inhibition of SHP1 (unknown origin) assessed as hydrolysis of pNPP to pNP at 25 uM after 30 mins

With `COC(=O)CN(c1ccc(CN(c2ccc(CN(Cc3ccccc3)S(C)(=O)=O)cc2)S(=O)(=O)Cc2ccccc2)cc1)S(C)(=O)=O` the inhibition [1] was under 50%.
`COC(=O)CN(c1ccc(CN(c2ccc(CN(Cc3ccccc3)S(C)(=O)=O)cc2)S(=O)(=O)c2ccccc2)cc1)S(C)(=O)=O` showed an IC50 [2] of 16.1 µM.
For `CCOc1ccc(S(=O)(=O)N(Cc2ccc(N(CC(=O)OC)S(C)(=O)=O)cc2)c2ccc(CN(Cc3ccccc3)S(C)(=O)=O)cc2)cc1`, the Activity [3] was 23.3%, the Activity [4] was “Dose-dependent effect” and the Ratio IC50 [5] was 8. The IC50 [6] was 2.31 µM, the inhibition [7] was “Active” and the inhibition [8] was under 50%. The Ratio IC50 [9] was 10, the IC50 [2] was 0.222 µM and the IC50 [10] was 1.86 µM. For the same molecule, the inhibition [11] was “Active”, the Activity [12] was 29.3% and the inhibition [13] was under 50%.
`CCS(=O)(=O)N(CC(=O)OC)c1ccc(CN(c2ccc(CN(Cc3cccc(Cl)c3)S(C)(=O)=O)cc2)S(=O)(=O)Cc2ccccc2)cc1` showed an inhibition [1] of under 50%.
`CCOc1ccc(S(=O)(=O)Nc2ccc(N(Cc3ccc(N(CC(=O)OC)S(=O)(=O)CC)cc3)S(=O)(=O)Cc3ccccc3)cc2)cc1` showed an IC50 [6] of 11.4 µM, an inhibition [8] of under 50% and an IC50 [2] of 0.47 µM. For the same molecule, the IC50 [10] was 1.92 µM and the inhibition [13] was under 50%.
Molecule `CCCCOc1ccc(S(=O)(=O)N(Cc2ccc(N(CC(=O)OC)S(C)(=O)=O)cc2)c2ccc(CN(Cc3ccccc3)S(C)(=O)=O)cc2)cc1` has an IC50 [2] of 0.896 µM.
`CCCOc1ccc(S(=O)(=O)N(Cc2ccc(N(CC(=O)OC)S(C)(=O)=O)cc2)c2ccc(CN(Cc3ccccc3)S(C)(=O)=O)cc2)cc1` gave an IC50 [2] of 0.902 µM.
In the case of `COC(=O)CN(c1ccc(CN(c2ccc(CN(Cc3ccc(C)cc3)S(C)(=O)=O)cc2)S(=O)(=O)Cc2ccccc2)cc1)S(C)(=O)=O`, the IC50 [2] is reported as 20.3 µM.
In the case of `COC(=O)CN(c1ccc(CN(c2ccc(N(Cc3ccccc3)S(C)(=O)=O)cc2)S(=O)(=O)Cc2ccccc2)cc1)S(C)(=O)=O`, the inhibition [14] is reported as under 50%, the IC50 [6] is reported as 9.61 µM and the IC50 [15] is reported as 11.6 µM. The inhibition [8] was under 50%, the Ratio IC50 [9] was 20 and the IC50 [2] was 0.492 µM.
`COC(=O)CN(c1ccc(CN(c2ccc(CN(Cc3ccccc3)S(C)(=O)=O)cc2)S(=O)(=O)c2ccc(OC)cc2)cc1)S(C)(=O)=O` was tested, and the inhibition [14] was under 50%, the inhibition [16] was under 50% and the inhibition [8] was under 50%. The IC50 [2] was 0.346 µM and the inhibition [13] was under 50%.
`COC(=O)CN(c1ccc(CN(c2ccc(N(Cc3cccc(Cl)c3)S(C)(=O)=O)cc2)S(=O)(=O)Cc2ccccc2)cc1)S(C)(=O)=O` showed an inhibition [1] of under 50%.
With `CCCCOc1ccc(S(=O)(=O)N(Cc2ccc(N(CC(=O)OC)S(C)(=O)=O)cc2)c2ccc(NS(=O)(=O)Cc3ccccc3)cc2)cc1` the IC50 [2] was 1.71 µM.
